The source of these data is patent US20130180014A1, “Pyridine Compounds for Controlling Invertebrate Pests III” (BASF SE, priority 2010, published 2013).

The term mortality denotes the share of the test organisms that died. A lower mortality goes with more survivors.

SMILES strings stand for the structures.

Holding throughout (type): in vivo
For one test, the system named is Aphis gossypii. In words: Cotton aphid, mixed life stages, method a) cotyledon dip. Conditions: cotton cotyledons dipped, in comparison with untreated controls. The source says: (§1) The active compounds were formulated in 50:50 (vol/vol) acetone:water and 100 ppm Kinetica™ surfactant.
Cotton plants at the cotyledon stage (one plant per pot) were infested by placing a heavily infested leaf from the main colony on top of each cotyledon. The aphids were allowed to transfer to the host plant overnight, and the leaf used to transfer the aphids was removed. The cotyledons were dipped in the test solution and allowed to dry. After days, mortality counts were made.

A further test concerns Megoura viciae. In words: Vetch aphid, bean leaf disk in microtiterplate. Conditions: foliar, 144 h, test solution 2500 mg/L, leaf disks sprayed with 2.5 μl, 6 days. How it is done: The active compounds were formulated in 1:3 (vol/vol) DMSO:water with different concentrations of formulated compounds.
Bean leaf disks were placed into microtiterplates filled with 0.8% agar-agar and 2.5 ppm OPUS™. The leaf disks were sprayed with 2.5 μl of the test solution and 5 to 8 adult aphids were placed into the microtiterplates which were then closed and kept at 23±1° C. and 50±5% relative humidity under fluorescent light for 6 days. Mortality was assessed on the basis of vital, reproduced aphids. Aphid mortality and fecundity was then visually assessed.

Test [1] has as its system Myzus persicae. The experiment in a line: Green peach aphid, mixed life stages, method a) pepper leaf dip. Conditions: foliar, 120 h, pepper leaves dipped, after 5 days, in comparison with untreated controls.
Excerpt: as §1
Pepper plants in the 2nd leaf-pair stage (variety ‘California Wonder’) were infested with approximately 40 laboratory-reared aphids by placing infested leaf sections on top of the test plants. The leaf sections were removed after 24 hr. The leaves of the intact plants were dipped into gradient solutions of the test compound and allowed to dry. Test plants were maintained under fluorescent light (24 hour photoperiod) at about 25° C. and 20-40% relative humidity. Aphid mortality on the treated plants, relative to mortality on check plants, was determined after 5 days.

In test [2] the test system is Myzus persicae. The experiment in a line: Green peach aphid, systemic, artificial diet under membrane in 96-well plate. Conditions: 72 h, 3 days, in comparison with untreated controls. The source says: For evaluating control of green peach aphid (Myzus persicae) through systemic means the test unit consisted of 96-well-microtiter plates containing liquid artificial diet under an artificial membrane.
The compounds were formulated using a solution containing 75% vol/vol water and 25% vol/vol DMSO. Different concentrations of formulated compounds were pipetted into the aphid diet, using a custom built pipetter, at two replications. After application, 5 to 8 adult aphids were placed on the artificial membrane inside the microtiter plate wells. The aphids were then allowed to suck on the treated aphid diet and incubated at about 23+1° C. and about 50+5% relative humidity for 3 days. Aphid mortality and fecundity was then visually assessed.

The test system of another test is Aphis craccivora. In words: Cowpea aphid, spray on potted cowpea plants. As to conditions: cowpea plants sprayed, assessed after 24, 72 and 120 hours, in comparison with untreated controls. How it is done:
The active compounds were formulated in 50:50 (vol/vol) acetone:water. The test solution was prepared at the day of use.
Potted cowpea plants colonized with 100-150 aphids of various stages were sprayed after the pest population had been recorded. Population reduction was assesed after 24, 72, and 120 hours.

Regarding `O=C(Nc1cccnc1)c1cncc(C(F)(F)F)c1` [Example 18, N-Pyridin-3-yl-5-trifluoromethylnicotinamide], the mortality at 300 ppm in the test on Aphis gossypii was no less than 75%; with Myzus persicae [1] it was no less than 90%; with Aphis craccivora, no less than 90%. Besides, the mortality at 2500 µg/mL in the test with Megoura viciae is no less than 90%. In addition, the mortality at 2500 ppm with Myzus persicae [2] stood at 100%.
